Where “and” joins values, the source holds several entries; their conditions need not be identical. Equal values may be shown once. Entries after “also recorded” stand apart in the source; their conditions may differ. Read-outs that look alike come from different tables or passages of the source.
Experiments:
zebrafish larvae [1] = test: Nontargeted analysis of PFAS metabolites in zebrafish larvae (high-resolution MS); settings: for Metabolites / hydrolysis products in zebrafish larvae: in vivo, nontargeted analysis; for Profile of metabolites (%): Alcohol / Peak intensity: Alcohol (parent FTOH): zebrafish larvae; for Profile of metabolites (%): Alcohol: Figure 5B; for Peak intensity: Alcohol (parent FTOH): single replicates, Figure 5A
Protocol: (§1) Zebrafish embryos were collected immediately after spawning, within 1 h, and subsequently transferred to 24-well plates with 1mL of facility water ( 0.036g sea salt, 0.15g sodium bicarbonate in 2L of reverse osmosis water). […] Three well replicates on the same plate were conducted for each concentration of individual chemical. […] Seven batches of experiments were performed to test all 74 PFAS. DMSO controls were incorporated in each batch of exposure experiments. Three replicates were performed for each treatment group, and 20 embryos were used for each replicate. […] For daily replenishment, 2.5mL of old exposure medium were replaced with freshly prepared medium every 24 h from 24 to 96 h post fertilization (hpf). Hatched or dead embryo numbers were recorded every 24 hpf, after which dead embryos were discarded from the growth media. Dead embryos or unhatched embryos were not used for PFAS measurement because the metabolism of PFAS might have been impacted. Zebrafish larvae collection occurred at 120 hpf. First, the larvae were anesthetized by cooling the plate in ice water (0–4°C) for ∼20 min . Then 8–15 larvae in each well were transferred into 1.5-mL tubes. Exposure media was carefully removed, and then the larvae were weighed (wet weight) after blotting excess water with a paper towel. […] Samples were stored at −80 °C until further chemical analysis was performed. Survival rate and hatching rate were calculated by summarizing all the documented data from the whole treatment duration. […] The exposure experiment of PFOSA was repeated using the same procedure as described above.
(§2) Each sample was spiked with 2μL of 0.2μg/mL mass-labeled PFAS mixture. Following this, 500μL of dichloromethane/methanol (2:1, vol/vol) was added to each sample for PFAS extraction. Larvae were then homogenized via ultrasonic probe, followed by 30 min of shaking and 30 min of sonication. Each sample was centrifuged at 14,000×g for 5 min, after which the supernatant was transferred to new tubes. Extraction was repeated once and the two supernatants were combined, evaporated under nitrogen flow, and reconstituted in 200μL of methanol for MS analysis.
(§3) Three microliters of each zebrafish extract was applied to a C18 column ( 1.5μm; 2.1mm×50mm; Thermo Scientific) and analyzed using a Vanquish ultra-HPLC system (Thermo Fisher Scientific) coupled to a Q Exactive high-resolution mass spectrometer (Thermo Fisher Scientific). The sampler and column compartments were maintained at 4°C and 40°C, respectively. The aqueous mobile phase solution (A) consisted of water, whereas the organic mobile phase solution (B) consisted of acetonitrile. […] MS data was acquired in full scan mode (100–1000 m/z, 70,000 mass resolution, 3×10^6 maximum ions collected per 100 ms), and tandem MS (MS/MS) data was recorded by all-ion fragmentation (AIF) mode. Negative and positive ion modes were carried out simultaneously at a 10-min method duration. […] An overview of the analyses conducted on the various PFAS is available in Table S2.
Nontargeted data analysis was accomplished with R scripts that are available on Github (https://github.com/huiUofT/PFASmetabolite). […] The peak features were matched across samples with a mass tolerance of 2.5 ppm and a RT window of 20 s, after RT adjustment. The ratio of abundances of each feature in treatment groups relative to the control group (DMSO) was calculated. The p -values of the difference between two groups were determined by student’s t -tests.

[2] = target: T1, recombinant human liver carboxylesterase 1 (hCES1) (Homo sapiens, UniProt P23141); test: Hydrolysis of PFAS by recombinant hCES1; assay type: in vitro ADME; settings: for concentration of corresponding hydrolysis product detected from parent PFAS, hCES1 / concentration of corresponding hydrolysis product detected from parent PFAS, Control: 10 µM parent PFAS, three replicates; for concentration of corresponding hydrolysis product detected from parent PFAS, hCES1: incubated with hCES1; for concentration of corresponding hydrolysis product detected from parent PFAS, Control: vehicle control group without hCES1; for Concentration of hydrolysis product: from 10μM of parent, 100μg/L hCES1, 37°C; for Parent PFAS, hCES1 (%) / Parent PFAS, Control (%): 10 μM PFAS, single replicates; for Parent PFAS, hCES1 (%): 100 μg/L hCES1, phosphate buffer 37 °C 1 hour, axis %Control; for Parent PFAS, Control (%): without hCES1, phosphate buffer 37 °C 1 hour
T1 construct: purchased Sigma Aldrich
T1 sequence (P23141 18-567): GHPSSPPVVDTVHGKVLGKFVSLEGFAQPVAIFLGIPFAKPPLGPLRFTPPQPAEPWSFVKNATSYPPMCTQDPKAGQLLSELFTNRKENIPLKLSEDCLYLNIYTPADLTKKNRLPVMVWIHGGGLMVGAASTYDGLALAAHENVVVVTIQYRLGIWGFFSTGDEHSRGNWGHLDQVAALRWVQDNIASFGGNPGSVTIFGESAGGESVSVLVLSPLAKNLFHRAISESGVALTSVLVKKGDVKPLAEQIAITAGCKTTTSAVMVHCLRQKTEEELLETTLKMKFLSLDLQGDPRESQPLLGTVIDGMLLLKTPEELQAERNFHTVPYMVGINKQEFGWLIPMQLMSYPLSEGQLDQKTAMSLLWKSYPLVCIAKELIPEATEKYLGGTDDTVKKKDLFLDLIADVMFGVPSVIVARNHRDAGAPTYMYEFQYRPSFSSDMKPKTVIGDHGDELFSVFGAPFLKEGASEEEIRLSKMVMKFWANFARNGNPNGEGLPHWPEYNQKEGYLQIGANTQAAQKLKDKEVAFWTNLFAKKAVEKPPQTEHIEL
Protocol: Because recombinant zebrafish CES is not available, we decided to use hCES1 to evaluate the structure-related hydrolysis of PFAS. […] In vitro enzymatic activity experiments were carried out for 1 h in 1.5-mL tubes with 100μL phosphate buffer ( 137 mM sodium chloride, 10 mM phosphate buffer, 2.7 mM potassium chloride; pH 7.4) at 37°C with shaking. Reaction mixtures contained different concentrations of PFAS (1, 10, and 50μM ) and 100μg/L hCES1. […] To stop the hydrolysis reaction, four times the volume of ice-cold methanol was added. The hCES1 protein was precipitated out by centrifugation ( 14,000×g , 10 min). The supernatant was transferred to a new tube and analyzed via MS for the analysis of parent compounds and suspected metabolites (i.e., carboxylates).

zebrafish embryos = settings: for pericardial oedemata, Mean / spinal curvature, Mean / tail dysplasia, Mean: 5μM through 120 hpf, malformation rate; for Mortality (%): 5 µM, exposure through 120 hpf; for Lethal effects on zebrafish larvae: 5μM, 5 d
zebrafish larvae [3] = test: Bioconcentration factors (BCF) of PFAS in zebrafish larvae; settings: zebrafish larvae; for BCF 0.5µM: 0.5 µM exposure; for BCF 0.5µM / BCF 5µM: 120 hpf, three replicates; for BCF 5µM: 5 µM exposure; for BCF: exposure concentration not given
Protocol: as §1, §2, §3
GraphPad Prism (version 7.0.4; GraphPad Software) and R studio (version 1.1.456; R Studio Inc.) software was used, and an ANOVA with Dunnett tests was employed to evaluate the statistical significance of the percentage hatched and mortality rate. Exponential regressions were used to determine the relationships between bioconcentration factor (BCF) and binding affinities ( Kd ) to L-FABP.

[4] = target: liver fatty acid binding protein (L-FABP); set-up: method as in Yang et al. 2020; settings: ref Yang et al. 2020, cited from earlier work

Compound	Metabolites / hydrolysis products in zebrafish larvae (zebrafish larvae [1])	concentration of corresponding hydrolysis product detected from parent PFAS, hCES1 [2] [nM]	concentration of corresponding hydrolysis product detected from parent PFAS, Control [2] [nM]	Concentration of hydrolysis product [2]	pericardial oedemata, Mean (zebrafish embryos) [%]	spinal curvature, Mean (zebrafish embryos) [%]	tail dysplasia, Mean (zebrafish embryos) [%]	Mortality (%) (zebrafish embryos)	BCF at 0.5μM compared with 5μM (zebrafish larvae [3])	BCF 0.5µM (zebrafish larvae [3])	BCF 5µM (zebrafish larvae [3]) [L/kg]	Profile of metabolites (%): Alcohol (zebrafish larvae [1]) [%]	Peak intensity: Alcohol (parent FTOH) (zebrafish larvae [1])	BCF (zebrafish larvae [3]) [L/kg]	Parent PFAS, hCES1 (%) [2]	Parent PFAS, Control (%) [2]	Lethal effects on zebrafish larvae (zebrafish embryos)	Lethal effects on zebrafish larvae (zebrafish embryos; listed as PFOSA)	Kd ([4]; read-out: Kd (μM), L-FABP binding affinity) [µM]	L-FABP ligand [4]
2,2-Difluoroethyl triflate [compound 13]	metabolites were not detected	0	0	not detected	2.22	0.00	1.11	2.2	–	–	–	–	–	–	–	–	–	–	–	–
2-(Trifluoromethoxy)ethyl trifluoromethanesulfonate [compound 10]	metabolites were not detected	0	0	not detected	2.22	1.11	0.00	0	–	–	–	–	–	–	–	–	–	–	–	–
OCC(F)(F)OC(F)(F)C(F)(F)OC(F)(F)CO [compound 32, 1H,1H,8H,8H-Perfluoro-3,6-dioxaoctane-1,8-diol]	–	–	–	–	1.11	0.00	1.11	3.3	comparable or even higher BCFs at 5μM	5.939 L/kg	8.4 ± 1.1	48.26	13344387 and 7489514 and 11717785	–	–	–	–	–	–	–
NC(=O)C(F)(F)C(F)(F)C(F)(F)C(F)(F)C(N)=O [compound 58, Octafluoroadipamide]	metabolites were not detected; also recorded: no metabolite was detected	–	–	not detected	1.11	1.11	0.00	6.7	–	–	–	–	–	< 10	97.41% and 90.44% and 135.26%	83.59% and 76.79% and 139.62%	–	–	–	–
NS(=O)(=O)C(F)(F)C(F)(F)C(F)(F)C(F)(F)C(F)(F)C(F)(F)C(F)(F)C(F)(F)F [compound 60, Perfluorooctanesulfonamide]	–	–	–	–	0.00	0.00	0.00	100	–	501 ± 19 L/kg and 501.032 L/kg	–	–	–	–	83.48% and 89.94% and 97.43%	81.21% and 101.71% and 117.08%	strongest lethal effects	no zebrafish larvae from the 5-μM group survived; also recorded: All zebrafish larvae were dead	5.87	–
CNS(=O)(=O)C(F)(F)C(F)(F)C(F)(F)C(F)(F)C(F)(F)C(F)(F)C(F)(F)C(F)(F)F [compound 16, N-Methylperfluorooctanesulfonamide]	–	–	–	–	0.00	0.00	0.00	–	–	292.232 L/kg	89 ± 9.4	–	–	–	89.36% and 92.00% and 92.59%	93.34% and 78.46% and 128.20%	strongest lethal effects	–	–	not identified as L-FABP ligands
C=C(C)C(=O)OCCC(F)(F)C(F)(F)C(F)(F)C(F)(F)C(F)(F)C(F)(F)F [compound 2, 6:2 Fluorotelomer methacrylate]	hydrolysis products (i.e., sulfated 6:2 FTOH) were also detected	–	–	–	3.33	1.11	4.44	0	–	–	–	–	–	–	–	–	–	–	–	–
COC(=O)C(F)(F)C(F)(F)C(F)(F)C(F)(F)C(F)(F)F [compound 36, Methyl perfluorohexanoate]	metabolites were not detected	–	–	not detected	1.11	0.00	0.00	4.4	–	–	–	–	–	–	–	–	–	–	–	–
OCCC(F)(F)C(F)(F)C(F)(F)C(F)(F)C(F)(F)C(F)(F)F [compound 70, 6:2 Fluorotelomer alcohol]	–	–	–	–	0.00	0.00	0.00	0	–	–	–	0.00	0	–	–	–	–	–	–	–
COC(=O)C(F)(F)C(F)(F)C(F)(F)F [compound 47, Methyl heptafluorobutyrate]	metabolites were not detected	–	–	not detected	2.22	1.11	0.00	0	–	–	–	–	–	–	–	–	–	–	–	–
NC(=O)C(F)(F)C(F)(F)C(F)(F)F [compound 31, Heptafluorobutyramide]	high abundances of metabolized carboxylates were detected	–	–	–	0.00	0.00	0.00	2.2	–	–	–	–	–	< 10	88.80% and 125.28% and 71.56%	98.24% and 100.70% and 101.05%	–	–	–	–
OCC(F)(F)C(F)(F)C(F)(F)C(F)(F)C(F)(F)C(F)F [compound 67, Dodecafluoroheptanol]	–	–	–	–	1.11	0.00	0.00	0	–	–	–	0.00	0	–	–	–	–	–	–	–
